Laboratory results from US20260297085A1, “1 H-PYRROLO[2,3-B]PYRIDIN-4-YL]-2-OXOPYRROLIDINE-3-CARBONITRILE DERIVATIVES AS TYROSINE KINASE 2 (TYK2) INHIBITORS FOR THE TREATMENT OF INFLAMMATORY DISEASES” (BIOGEN MA INC., priority 2023, published 2026).
Structures can show the parent of a compound that is named as a salt.

Tests used:
[1] = biological target: T1, human JAK2 kinase domain (JH1) (Homo sapiens, UniProt O60674); assay: JH1 biochemical assay for JAK2 (ADP-Glo kinase assay, recombinant JH1 catalytic domain, JAK3-974 peptide, 15 μM ATP)
T1 construct: recombinantly generated catalytic kinase (also known as JH1) domain of human JAK1, JAK2, JAK3 and TYK2
Summary of the method: (§1)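 ADP-Glo luminescence with 50 μM peptide and 100 min reactions: JAK1 4 nM with JAK3-342 peptide; JAK2, JAK3 and TYK2 at 0.2, 0.3 and 2 nM with JAK3-974 peptide. Compounds tested from 10 or 1 μM top, 11 points, 3-fold. IC50 from a 4-parameter logistic fit of normalized activity.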

[2] = biological target: JAK2 kinase activity on STAT5 in TF1 cells (Homo sapiens, UniProt O60674); assay: pSTAT5 cell assay (MSD; TF1 cells, 30 ng/mL IL-3 stimulation); assay type: cell-based; settings: 30 ng/mL IL-3, 15 minutes
Description: The inhibitory potency of compounds of the disclosure against the JAK2 kinase activity on STAT5 was evaluated using an MSD-platform plate-based assay format. TF1 cells natively expressing STAT5 and JAK2 were serum-starved to reduce background phosphorylation levels, then cells were treated with compounds of disclosure for 1 hour with a 10-point four-fold dilution series starting at 10 μM. Cells were then stimulated with 30 ng/mL IL-3 for 15 minutes. Cells were then lysed and pSTAT5 levels were quantitated using an MSD plate-based assay with anti-STAT5 antibodies. The data were normalized and the percent activity versus log concentration of compound was fitted with a 4-parameter logistic model to generate a curve and an IC50 value.

[3] = biological target: Tyk2 kinase activity on STAT4 in NK92 cells (Homo sapiens, UniProt P29597); assay: pSTAT4 cell assay (MSD; NK92 cells, 30 ng/mL IL2 stimulation); assay type: cell-based; settings: 30 ng/mL IL2, 15 minutes
Description: The inhibitory potency of compounds of the disclosure against the Tyk2 kinase activity on STAT4 was evaluated using an MSD-platform plate-based assay format. NK92 cells natively expressing STAT4 and Tyk2 were serum-starved to reduce background phosphorylation levels, then cells were treated compounds for 1 hr with a 10-point four-fold dilution series starting at 10 μM. Cells were then stimulated with 30 ng/mL IL2 for 15 minutes. Cells were lysed and […] levels were quantitated using an MSD plate-based assay with anti-STAT4 antibodies. The data were normalized and the percent activity versus log concentration of compound were fitted with a 4-parameter logistic model to generate to generate IC50 curves.

[4] = biological target: T2, human TYK2 kinase domain (JH1) (Homo sapiens, UniProt P29597); assay: JH1 biochemical assay for TYK2 (ADP-Glo kinase assay, recombinant JH1 catalytic domain, JAK3-974 peptide, 10 μM ATP)
T2 construct: recombinantly generated catalytic kinase (also known as JH1) domain of human JAK1, JAK2, JAK3 and TYK2
T2 sequence (P29597 897-1176 limits assumed): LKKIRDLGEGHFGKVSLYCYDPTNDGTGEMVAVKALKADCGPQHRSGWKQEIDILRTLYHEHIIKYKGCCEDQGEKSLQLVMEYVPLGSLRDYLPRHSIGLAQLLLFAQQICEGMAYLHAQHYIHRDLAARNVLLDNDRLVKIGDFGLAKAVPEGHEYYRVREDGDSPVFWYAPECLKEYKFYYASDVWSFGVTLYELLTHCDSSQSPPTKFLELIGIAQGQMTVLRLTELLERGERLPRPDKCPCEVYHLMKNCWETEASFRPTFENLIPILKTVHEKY
Summary of the method: as §1

[5] = biological target: T3, human JAK1 kinase domain (JH1) (Homo sapiens, UniProt P23458); assay: JH1 biochemical assay for JAK1 (ADP-Glo kinase assay, recombinant JH1 catalytic domain, JAK3-342 peptide, 35 μM ATP)
T3 construct: recombinantly generated catalytic kinase (also known as JH1) domain of human JAK1, JAK2, JAK3 and TYK2
Summary of the method: as §1

[6] = biological target: T4, human JAK3 kinase domain (JH1) (Homo sapiens, UniProt P52333); assay: JH1 biochemical assay for JAK3 (ADP-Glo kinase assay, recombinant JH1 catalytic domain, JAK3-974 peptide, 4 μM ATP)
T4 construct: recombinantly generated catalytic kinase (also known as JH1) domain of human JAK1, JAK2, JAK3 and TYK2
Summary of the method: as §1

[7] = biological target: JAK1 kinase activity on STAT3 in TF1 cells (Homo sapiens, UniProt P23458); assay: pSTAT3 cell assay (MSD; TF1 cells, 30 ng/mL IL-6 stimulation); assay type: cell-based; settings: 30 ng/mL IL-6, 15 minutes
Description: The inhibitory potency of compounds of the disclosure against the JAK1 kinase activity on STAT3 was evaluated using an MSD-platform plate-based assay format. TF1 cells natively expressing STAT3 and JAK1 were serum-starved to reduce background phosphorylation levels, then cells were treated with compounds of the disclosure for 1 hour with a 10-point four-fold dilution series starting at 10 μM. Cells were then stimulated with 30 ng/mL interleukin 6 (IL-6) for 15 minutes. Cells were lysed and pSTAT3 levels were quantitated using an MSD plate-based assay with anti-STAT3 antibodies. The data were normalized and the percent activity versus log concentration of compound was fitted with a 4-parameter logistic model to generate IC50 curves.

T4 sequence (P52333 822-1111 limits assumed): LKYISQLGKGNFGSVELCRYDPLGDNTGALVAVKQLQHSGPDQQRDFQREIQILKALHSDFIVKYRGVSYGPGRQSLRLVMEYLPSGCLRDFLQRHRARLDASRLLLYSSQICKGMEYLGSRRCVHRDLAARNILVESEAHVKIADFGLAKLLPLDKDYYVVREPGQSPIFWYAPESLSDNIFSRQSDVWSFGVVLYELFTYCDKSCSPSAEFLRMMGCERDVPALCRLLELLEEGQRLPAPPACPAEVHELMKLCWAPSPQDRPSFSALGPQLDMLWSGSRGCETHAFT
Chain of Tyk2 kinase activity on STAT4 in NK92 cells (P29597 whole entry): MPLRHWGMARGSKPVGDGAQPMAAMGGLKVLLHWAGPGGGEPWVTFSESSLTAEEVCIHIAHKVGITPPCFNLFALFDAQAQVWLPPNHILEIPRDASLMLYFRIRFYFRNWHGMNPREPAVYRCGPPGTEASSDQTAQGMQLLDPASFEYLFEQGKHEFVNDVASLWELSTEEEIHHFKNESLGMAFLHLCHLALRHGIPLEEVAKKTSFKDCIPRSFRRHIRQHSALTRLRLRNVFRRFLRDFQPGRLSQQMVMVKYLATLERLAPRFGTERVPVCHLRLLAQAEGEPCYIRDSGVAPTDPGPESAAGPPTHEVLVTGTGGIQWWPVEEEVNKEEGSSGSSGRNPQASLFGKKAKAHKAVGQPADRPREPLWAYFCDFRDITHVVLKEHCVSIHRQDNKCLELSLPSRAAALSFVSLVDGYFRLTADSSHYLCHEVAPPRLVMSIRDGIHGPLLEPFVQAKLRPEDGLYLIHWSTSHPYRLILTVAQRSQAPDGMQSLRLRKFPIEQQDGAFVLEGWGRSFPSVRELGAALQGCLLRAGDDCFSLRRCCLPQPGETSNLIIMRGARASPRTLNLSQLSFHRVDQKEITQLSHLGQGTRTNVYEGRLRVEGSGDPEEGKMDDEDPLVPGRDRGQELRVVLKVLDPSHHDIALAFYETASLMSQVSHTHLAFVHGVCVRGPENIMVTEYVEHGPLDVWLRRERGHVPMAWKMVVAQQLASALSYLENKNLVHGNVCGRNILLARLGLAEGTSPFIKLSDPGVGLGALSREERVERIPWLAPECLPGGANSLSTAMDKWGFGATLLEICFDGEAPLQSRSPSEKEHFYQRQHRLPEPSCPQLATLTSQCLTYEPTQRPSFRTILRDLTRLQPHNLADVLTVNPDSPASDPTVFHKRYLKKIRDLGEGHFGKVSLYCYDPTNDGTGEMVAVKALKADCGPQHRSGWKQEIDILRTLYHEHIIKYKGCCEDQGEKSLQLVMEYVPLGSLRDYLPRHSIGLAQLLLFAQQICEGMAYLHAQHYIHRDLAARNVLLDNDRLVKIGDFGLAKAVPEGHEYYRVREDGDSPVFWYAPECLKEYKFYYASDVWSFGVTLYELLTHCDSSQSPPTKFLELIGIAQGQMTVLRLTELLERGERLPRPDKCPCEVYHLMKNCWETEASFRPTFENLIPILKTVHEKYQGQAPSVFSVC
T1 sequence (O60674 849-1124 limits assumed): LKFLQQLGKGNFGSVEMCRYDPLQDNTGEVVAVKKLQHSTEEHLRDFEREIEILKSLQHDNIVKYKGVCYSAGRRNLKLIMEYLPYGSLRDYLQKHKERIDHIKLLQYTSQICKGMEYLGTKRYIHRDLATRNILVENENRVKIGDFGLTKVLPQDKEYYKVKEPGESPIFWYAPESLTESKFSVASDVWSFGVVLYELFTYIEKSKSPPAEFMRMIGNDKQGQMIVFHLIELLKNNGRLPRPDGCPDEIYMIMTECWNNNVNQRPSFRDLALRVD
Chain of JAK2 kinase activity on STAT5 in TF1 cells (O60674 whole entry): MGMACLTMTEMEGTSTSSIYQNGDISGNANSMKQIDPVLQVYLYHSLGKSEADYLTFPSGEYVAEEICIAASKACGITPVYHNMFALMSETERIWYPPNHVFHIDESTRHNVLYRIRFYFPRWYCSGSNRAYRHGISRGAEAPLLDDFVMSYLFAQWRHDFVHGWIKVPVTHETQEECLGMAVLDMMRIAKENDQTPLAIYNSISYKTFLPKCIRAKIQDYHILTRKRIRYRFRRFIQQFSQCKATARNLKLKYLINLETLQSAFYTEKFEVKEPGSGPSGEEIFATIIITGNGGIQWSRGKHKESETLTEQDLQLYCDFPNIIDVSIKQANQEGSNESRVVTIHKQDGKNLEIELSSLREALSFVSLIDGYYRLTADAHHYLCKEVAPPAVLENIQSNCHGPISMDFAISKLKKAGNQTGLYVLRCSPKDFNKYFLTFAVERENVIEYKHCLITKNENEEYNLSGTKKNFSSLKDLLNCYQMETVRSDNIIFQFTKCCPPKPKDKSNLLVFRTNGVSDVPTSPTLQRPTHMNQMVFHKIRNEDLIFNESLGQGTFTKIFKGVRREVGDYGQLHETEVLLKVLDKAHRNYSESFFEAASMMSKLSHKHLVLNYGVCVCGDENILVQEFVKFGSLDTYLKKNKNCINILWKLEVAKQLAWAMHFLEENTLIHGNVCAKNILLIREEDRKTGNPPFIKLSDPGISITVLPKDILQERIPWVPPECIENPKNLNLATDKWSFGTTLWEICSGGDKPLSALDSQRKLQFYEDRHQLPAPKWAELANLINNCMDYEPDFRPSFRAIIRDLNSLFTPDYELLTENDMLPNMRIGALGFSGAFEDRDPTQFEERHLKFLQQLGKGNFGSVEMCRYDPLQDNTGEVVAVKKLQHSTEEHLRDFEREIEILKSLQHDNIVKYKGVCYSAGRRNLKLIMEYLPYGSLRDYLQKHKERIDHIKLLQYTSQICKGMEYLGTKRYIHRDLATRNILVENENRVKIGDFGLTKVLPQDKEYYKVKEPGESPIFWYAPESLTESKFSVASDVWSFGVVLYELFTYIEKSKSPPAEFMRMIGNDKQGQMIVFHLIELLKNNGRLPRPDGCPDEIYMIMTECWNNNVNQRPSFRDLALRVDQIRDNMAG
Chain of JAK1 kinase activity on STAT3 in TF1 cells (P23458 whole entry): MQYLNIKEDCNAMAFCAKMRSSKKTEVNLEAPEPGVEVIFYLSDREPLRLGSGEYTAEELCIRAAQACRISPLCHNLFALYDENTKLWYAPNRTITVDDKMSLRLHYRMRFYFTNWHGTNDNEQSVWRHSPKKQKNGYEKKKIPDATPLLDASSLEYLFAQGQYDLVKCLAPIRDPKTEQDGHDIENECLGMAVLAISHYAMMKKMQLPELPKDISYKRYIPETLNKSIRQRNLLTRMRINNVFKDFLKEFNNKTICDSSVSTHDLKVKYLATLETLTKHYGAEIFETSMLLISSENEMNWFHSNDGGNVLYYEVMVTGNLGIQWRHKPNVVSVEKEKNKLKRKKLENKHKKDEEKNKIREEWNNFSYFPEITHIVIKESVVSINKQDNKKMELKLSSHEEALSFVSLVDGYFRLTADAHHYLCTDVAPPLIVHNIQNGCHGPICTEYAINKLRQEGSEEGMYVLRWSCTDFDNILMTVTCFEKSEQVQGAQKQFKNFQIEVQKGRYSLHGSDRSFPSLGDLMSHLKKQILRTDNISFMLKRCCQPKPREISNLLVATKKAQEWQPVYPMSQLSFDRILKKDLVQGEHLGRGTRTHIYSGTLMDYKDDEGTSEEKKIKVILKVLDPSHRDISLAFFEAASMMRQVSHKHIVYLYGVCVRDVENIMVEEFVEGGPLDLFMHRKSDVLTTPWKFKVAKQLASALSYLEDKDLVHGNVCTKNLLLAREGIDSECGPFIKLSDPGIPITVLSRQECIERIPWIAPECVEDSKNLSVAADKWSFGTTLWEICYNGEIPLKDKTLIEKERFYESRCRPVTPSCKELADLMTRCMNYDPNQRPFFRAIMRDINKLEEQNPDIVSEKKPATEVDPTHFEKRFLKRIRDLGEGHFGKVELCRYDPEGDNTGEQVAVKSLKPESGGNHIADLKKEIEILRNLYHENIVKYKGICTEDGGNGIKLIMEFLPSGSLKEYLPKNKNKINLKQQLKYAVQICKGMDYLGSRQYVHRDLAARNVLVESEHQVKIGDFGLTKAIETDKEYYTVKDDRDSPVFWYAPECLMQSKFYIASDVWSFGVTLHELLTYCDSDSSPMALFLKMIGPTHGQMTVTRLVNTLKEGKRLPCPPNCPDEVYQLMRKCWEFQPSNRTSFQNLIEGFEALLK
T3 sequence (P23458 875-1153 limits assumed): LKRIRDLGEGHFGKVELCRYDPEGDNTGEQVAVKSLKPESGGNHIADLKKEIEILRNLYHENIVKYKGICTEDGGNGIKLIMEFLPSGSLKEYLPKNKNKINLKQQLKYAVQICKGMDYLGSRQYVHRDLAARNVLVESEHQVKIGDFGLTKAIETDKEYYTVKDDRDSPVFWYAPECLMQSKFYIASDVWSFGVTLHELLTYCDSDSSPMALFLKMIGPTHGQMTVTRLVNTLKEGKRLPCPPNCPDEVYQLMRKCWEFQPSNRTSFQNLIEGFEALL

Row | SMILES | IC50 ([1]; JAK2 JH1, ADP-Glo) [nM] | IC50 [2] [nM] | IC50 [3] [nM] | IC50 ([4]; TYK2 JH1, ADP-Glo) [nM] | IC50 ([5]; JAK1 JH1, ADP-Glo) [nM] | IC50 ([6]; JAK3 JH1, ADP-Glo) [nM] | IC50 [7] [nM] | IC50 ([1]; JH1 kinase domain, ADP-Glo) [nM] | IC50 ([4]; JH1 kinase domain, ADP-Glo) [nM] | IC50 ([5]; JH1 kinase domain, ADP-Glo) [nM] | IC50 ([6]; JH1 kinase domain, ADP-Glo) [nM]
1 | Cc1c(-c2cn3ncc(F)c3c(N3C[C@@H](C)[C@@](C#N)(C4CC4)C3=O)n2)cnn1C [Example 221, (3R,4S)-3-cyclopropyl-1-(6-(1,5-dimethyl-1H-pyrazol-4-yl)-3-fluoropyrazolo[1,5-a]pyrazin-4-yl)-4-methyl-2-oxopyrrolidine-3-carbonitrile] | 1000 to 5000 | > 10000 | > 100 | 5 to 20 | 100 to 1000 | 100 to 1000 | 1000 to 5000 | – | – | – | –
2 | C[C@@H]1CN(c2ccnn3cc(-c4cnn([C@@H]5CC5(F)F)c4)cc23)C(=O)[C@]1(C#N)C1CC1 (single isomer, unassigned) [Example 155] | – | 1000 to 5000 | 50 to 100 | – | – | – | 1000 to 5000 | 100 to 1000 | < 5 | < 100 | 100 to 1000
3 | C[C@@H]1CN(c2ccnn3cc(-c4cnn(C5CC(F)(F)C5)c4)cc23)C(=O)[C@]1(C#N)C1CC1 [Example 157, (3R,4S)-3-cyclopropyl-1-(6-(1-(3,3-difluorocyclobutyl)-1H-pyrazol-4-yl)pyrrolo[1,2-b]pyridazin-4-yl)-4-methyl-2-oxopyrrolidine-3-carbonitrile] | – | 1000 to 5000 | 50 to 100 | – | – | – | 100 to 1000 | < 100 | < 5 | < 100 | < 100
4 | Cc1cnc(-c2cc3c(N4C[C@@H](C)[C@@](C#N)(C5CC5)C4=O)ccnn3c2)s1 [Example 118, (3R,4S)-3-cyclopropyl-4-methyl-1-(6-(5-methylthiazol-2-yl)pyrrolo[1,2-b]pyridazin-4-yl)-2-oxopyrrolidine-3-carbonitrile trifluoroacetate] | – | > 10000 | > 100 | – | – | – | 5000 to 10000 | 100 to 1000 | 5 to 20 | 100 to 1000 | 100 to 1000
5 | C[C@@H]1CN(c2ccnn3cc(-c4cnn(C5CC5)c4)cc23)C(=O)[C@]1(C#N)C1CC1 [Example 161, (3R,4S)-3-cyclopropyl-1-(6-(1-cyclopropyl-1H-pyrazol-4-yl)pyrrolo[1,2-b]pyridazin-4-yl)-4-methyl-2-oxopyrrolidine-3-carbonitrile] | – | 1000 to 5000 | 20 to 50 | – | – | – | 1000 to 5000 | 100 to 1000 | < 5 | 100 to 1000 | 100 to 1000
6 | CCn1cc(-c2cn3nccc3c(N3C[C@@H](C)[C@@](C#N)(C4CC4)C3=O)n2)cn1 [Example 202, (3R,4S)-3-cyclopropyl-1-(6-(1-ethyl-1H-pyrazol-4-yl)pyrazolo[1,5-a]pyrazin-4-yl)-4-methyl-2-oxopyrrolidine-3-carbonitrile] | – | 100 to 1000 | 50 to 100 | – | – | – | 100 to 1000 | < 100 | < 5 | < 100 | < 100
7 | COc1ccc(-c2cc3c(N4C[C@@H](C)[C@@](C#N)(C5CC5)C4=O)ccnn3c2)nc1 [Example 145, (3R,4S)-3-cyclopropyl-1-(6-(5-methoxypyridin-2-yl)pyrrolo[1,2-b]pyridazin-4-yl)-4-methyl-2-oxopyrrolidine-3-carbonitrile trifluoroacetate] | – | > 10000 | > 100 | – | – | – | 5000 to 10000 | 100 to 1000 | 5 to 20 | 100 to 1000 | 100 to 1000
8 | C[C@@H]1CN(c2nc(-c3cnn(C4COC4)c3)cn3ncc(F)c23)C(=O)[C@]1(C#N)C1CC1 [Example 291, (3R,4S)-3-cyclopropyl-1-(3-fluoro-6-(1-(oxetan-3-yl)-1H-pyrazol-4-yl)pyrazolo[1,5-a]pyrazin-4-yl)-4-methyl-2-oxopyrrolidine-3-carbonitrile] | < 100 | 1000 to 5000 | 50 to 100 | < 5 | < 100 | < 100 | 1000 to 5000 | – | – | – | –
9 | C[C@@H]1CN(c2nc(-c3cnn(C45CC(C#N)(C4)C5)c3)cn3ncc(F)c23)C(=O)[C@]1(C#N)C1CC1 [Example 297, (3R,4S)-1-(6-(1-(3-cyanobicyclo[1.1.1]pentan-1-yl)-1H-pyrazol-4-yl)-3-fluoropyrazolo[1,5-a]pyrazin-4-yl)-3-cyclopropyl-4-methyl-2-oxopyrrolidine-3-carbonitrile] | < 100 | 1000 to 5000 | > 100 | < 5 | < 100 | < 100 | 1000 to 5000 | – | – | – | –
10 | COCc1cnn(-c2cc3c(N4C[C@@H](C)[C@@](C#N)(C5CC5)C4=O)ccnn3c2)c1 [Example 337, (3R,4S)-3-cyclopropyl-1-(6-(4-(methoxymethyl)-1H-pyrazol-1-yl)pyrrolo[1,2-b]pyridazin-4-yl)-4-methyl-2-oxopyrrolidine-3-carbonitrile] | 100 to 1000 | – | > 100 | 20 to 50 | 100 to 1000 | 100 to 1000 | – | – | – | – | –
11 | CC(C)[C@@]1(C#N)C(=O)N(c2nc(-c3cnn(C)c3)cn3ncc(F)c23)C[C@H]1C [Example 310, (3R,4S)-1-(3-fluoro-6-(1-methyl-1H-pyrazol-4-yl)pyrazolo[1,5-a]pyrazin-4-yl)-3-isopropyl-4-methyl-2-oxopyrrolidine-3-carbonitrile] | 100 to 1000 | – | > 100 | 5 to 20 | 100 to 1000 | < 100 | – | – | – | – | –
12 | C[C@@H]1CN(c2nc(-c3ccc(N(C)C(=O)OC(C)(C)C)nc3)cn3nccc23)C(=O)[C@]1(C#N)C1CC1 [Example 266, tert-butyl (5-(4-((3R,4S)-3-cyano-3-cyclopropyl-4-methyl-2-oxopyrrolidin-1-yl)pyrazolo[1,5-a]pyrazin-6-yl)pyridin-2-yl)(methyl)carbamate trifluoroacetate] | < 100 | – | 50 to 100 | < 5 | < 100 | < 100 | – | – | – | – | –
13 | C[C@@H]1CN(c2nc(-c3cnn(CC4(C)COC4)c3)cn3ncc(F)c23)C(=O)[C@]1(C#N)C1CC1 [Example 303, (3R,4S)-3-cyclopropyl-1-(3-fluoro-6-(1-((3-methyloxetan-3-yl)methyl)-1H-pyrazol-4-yl)pyrazolo[1,5-a]pyrazin-4-yl)-4-methyl-2-oxopyrrolidine-3-carbonitrile] | < 100 | – | 50 to 100 | < 5 | < 100 | < 100 | – | – | – | – | –
